Measured values taken from patent US20170342503A1, “XRN2 AS A DETERMINANT OF SENSITIVITY TO DNA DAMAGE” (The Board of Regents of the University of Texas System, priority 2016, published 2017).

Tests used:
[1] = system: advanced pancreatic cancer; conditions: people with advanced pancreatic cancer; cited from earlier work
[2] = system: cells with transient siRNA-mediated loss of XRN2; assay: Colony forming assay, PARP inhibition with transient siRNA-mediated loss of XRN2; assay type: cell-based; conditions: FIG. 8C, p<0.05
Description: FIGS. 8A-C. XRN2 depletion sensitizes cells to genetic knockdown and chemical inhibition of PARP1. […] (FIG. 8B) Loss of XRN2 and PARP1 by transient siRNA knockdown together inhibits cellular growth and survival; black column—shSCR; white column—shXRN2.
shScr and shXRN2 cells were plated onto 60 mm tissue culture plates and allowed to grow for two days. […] Colonies with >50 normal appearing cells were counted and percent survival calculated and graphed with dose.

[3] = system: XRN2 deficient cells, fibroblast or MDA-MB-231 cells; assay: Colony forming ability assay in shScr versus shXRN2 cells after genomic insult; assay type: cell-based, human; conditions: FIGS. 12E-F
Description: (FIGS. 12A-D) shScr versus shXRN2 cells (as indicated in the graph) or cells exposed to si-control (siSCR) versus XRN2 specific siRNA (siXRN2) were either mock-treated or exposed to: (FIGS. 12A-B) ionizing radiation (IR); (FIGS. 12C-D) ultraviolet light (UV). (FIGS. 12E-F) shScr and shXRN2, were either mock-treated or exposed to: (FIG. 12E) H2O2 or (FIG. 12F) Aphidicolin (APH). Cells were then monitored for survival using colony forming ability assays. Colonies of >50 normal-appearing cells were quantified for mock-versus agent-exposed cells. (**p<0.01).
shScr and shXRN2 cells were plated onto 60 mm tissue culture plates and allowed to grow for two days. Cells were then exposed to IR and UV (at various doses as indicated), allowed to grow for 7 days, washed with PBS and stained with crystal violet solution. Colonies with >50 normal appearing cells were counted and percent survival calculated and graphed with dose.

shXRN2 cells = assay: Regression of 53BP1 foci/nucleus after IR exposure (DNA repair kinetics); assay type: cell-based; conditions: IR (1 Gy); treatment prior to IR; FIGS. 15B-C
Description: FIGS. 15A-C. R loop formation and transcription contribute to delayed DSB repair kinetics in XRN2-deficient cells. (FIG. 15A) Levels of R loops were monitored in mock- or IR (1 Gy)-exposed shXRN2 compared to shScr MDA-MB-231 breast cancer cells by IF. (FIGS. 15B-C) Regression of 53BP1 foci/nucleus was monitored in mock- or IR (1 Gy)-treated shXRN2 compared to shScr cells that were exposed to a-amanitin or GFP- or GFP-RNaseH transfection at the indicated times by IF. (*p<0.05).
To visualize 53BP1, XRN2, and γ-H2AX, cells were plated, grown to ˜70% confluency on glass coverslips and either mock- or IR-treated. […] Visualization was performed using a 100× oil objective lens with fluorescence on a Nikon microscope. For each experiment 100 cells were counted.
Since the loss of XRN2 sensitized cells to IR treatment (FIG. 12A), the inventors examined the effects of IR on R-loop formation in shXRN2 cells. Because R-loops can directly lead to DSBs, they examined whether active transcription or R-loop formation directly affected DNA repair (regression of 53BP1 foci) after IR treatment. shScr or shXRN2 cells were treated or not with a-amanitin or transfected with GFP- or GFP-RNaseH expression plasmids prior to IR exposure and 53BP1 foci/nuclei regression kinetics were assessed at various times after IR exposure.

fibroblast cells = assay: Immunofluorescence of XRN2 and R loop (S9.6) foci after UV treatment; assay type: cell-based, human; conditions: UV (20 J/m^2) + a-amanitin; FIG. 17D
Description: FIGS. 10A-D. XRN2 is a DNA damage response (DDR) factor. (FIG. 10A) To interrogate potential in vivo XRN2-interacting partners, exponentially growing HeLa cells were collected and lysed for FPLC analyses. Individual fractions were separated by SDS-PAGE and western blot techniques used to probe for indicated proteins. (FIG. 10B) Interactions between XRN2 and the DNA damage regulators Ku80, 53BP1, and BRCA1 were interrogated by immunoprecipitation (IP). (FIG. 10C) Sub-cellular XRN2 localization was quantitated in shScr and […] cells in mock-, IR (1 Gy), and UV (20 J/m^2) fibroblast cells. (FIG. 10D) Sub-cellular XRN2 localization and S9.6 foci was visualized in mock-, UV (20 J/m^2)-, or UV (20 J/m^2)+a amanitin (a-aman)-treated shScr and shXRN2 fibroblast cells by IF. (*p<0.05).
FIGS. 17A-D. XRN2 undergoes transcription-dependent nuclear re-distribution in response to IR and UV. (FIGS. 17A-D) Sub-cellular localization of XRN2 was monitored in fibroblast cells either after (FIG. 17A) mock, (FIG. 17B) IR (1Gy), (FIG. 17C) UV (20 J/m^2), or (FIG. 17D) UV (20 J/m^2)+a-amanitin treated cells by IF.
To visualize 53BP1, XRN2, and γ-H2AX, cells were plated, grown to ˜70% confluency on glass coverslips and either mock- or IR-treated. […] Visualization was performed using a 100× oil objective lens with fluorescence on a Nikon microscope. For each experiment 100 cells were counted. […]

[4] = system: shXRN2 human fibroblast cells; assay: Immunofluorescence of basal 53BP1 foci and R loops in shXRN2 versus shScr cells; assay type: cell-based
Description: FIGS. 24A-C. DSBs formed in XRN2 deficient cells are dependent on active transcription and R-loop formation. (FIGS. 24A-B) Levels of 53BP1 were monitored in shXRN2 and compared to shScr human fibroblast cells after exposure to mock-, a-amanitin-, or GFP- or RNaseH-transfection treatments by IF. (FIG. 24C) Levels of R loops or 53BP1 were monitored in mock- or a-amanitin-treated shXRN2 cells by IF.
To visualize 53BP1, XRN2, and γ-H2AX, cells were plated, grown to ˜70% confluency on glass coverslips and either mock- or IR-treated. Cells were then washed once with PBS, permeabilized and fixed in methanol/acetone (70/30, v/v). To visualize ATM pS 1981 and Mre11 cells were fixed in 3% paraformaldehyde/2% sucrose PBS solution for 10 min at room temperature (RT). Fixation was followed by permeabilization on ice with a 0.5% Triton X-100 buffer (0.5% Triton X-100, 20 mM HEPES, pH 7.4, 50 mM NaCl, 3 mM MgCl, and 300 mM sucrose). […] Visualization was performed using a 100× oil objective lens with fluorescence on a Nikon microscope. For each experiment 100 cells were counted.
To determine how transcription and R-loop formation contributed to the DNA damage observed in shXRN2 cells, the inventors treated shScr and shXRN2 cells with a-amanitin or transfected each cell line with GFP control or GFP-RNaseH expression plasmids to remove R-loops and measured the number of 53BP1 foci.

In the case of `Nc1ccn([C@@H]2O[C@H](CO)[C@@H](O)C2(F)F)c(=O)n1` [Gemcitabine], the “improvement in median survival duration” value [1] is given as 5 week.

With `O=C1NCCc2c(OCCCCN3CCCCC3)cccc21` [DPQ] the “effect of PARP activity inhibition on survival in colony forming assays with loss of XRN2” value [2] was “synthetic lethal”.

With `C[C@@]1(CO)[C@H](O)CC[C@@]2(C)[C@H]1CC[C@H]1C[C@@H]3C[C@@]12CC[C@]3(O)CO` [aphidicolin] the “sensitivity of XRN2 deficient cells (colony forming ability after exposure)” value [3] was “hypersensitive”.

In the case of a-amanitin, the “DNA repair kinetics (regression of 53BP1 foci) after IR exposure in shXRN2 cells” value (shXRN2 cells) is reported as “completely restored DNA repair kinetics”, the “XRN2 and R loop foci formation after UV treatment” value (fibroblast cells) is reported as “failed to form” and the “R-loop levels in shXRN2 cells” value ([4]; after a-amanitin treatment, FIG. 24C) is reported as “decrease in R-loop levels”. For the same molecule, the “53BP1 foci in shXRN2 cells” value ([4]; inhibition of transcription, to levels comparable to shScr cells, FIGS. 24A-B) was “decreased 53BP1 foci”.

With `OO` [hydrogen peroxide] the “sensitivity of XRN2 deficient cells (colony forming ability after exposure)” value [3] was “hypersensitive”.
